Assay results published in ChEMBL document CHEMBL5308504, “Tm Shift (DSF) assay results for EUbOPEN Chemogenomics Library” (2023).
Where “and” joins values, the source holds several entries; their conditions need not be identical. Equal entries are not always repeated.

What was measured:
[1] = molecular target: Fibroblast growth factor receptor 3 (Homo sapiens) (UniProt P22607); conditions: Compound concentration 20.0 uM, Protein concentration 2.0 uM, Result type QC Liability
Description: Thermal Shift Assay. Domain: start/stop: P449-E759

Peregrin (Homo sapiens) = molecular target: T1, Peregrin (Homo sapiens) (UniProt P55201); conditions: Compound concentration 20.0 uM, Protein concentration 2.0 uM, Result type QC Liability
T1 sequence (whole entry): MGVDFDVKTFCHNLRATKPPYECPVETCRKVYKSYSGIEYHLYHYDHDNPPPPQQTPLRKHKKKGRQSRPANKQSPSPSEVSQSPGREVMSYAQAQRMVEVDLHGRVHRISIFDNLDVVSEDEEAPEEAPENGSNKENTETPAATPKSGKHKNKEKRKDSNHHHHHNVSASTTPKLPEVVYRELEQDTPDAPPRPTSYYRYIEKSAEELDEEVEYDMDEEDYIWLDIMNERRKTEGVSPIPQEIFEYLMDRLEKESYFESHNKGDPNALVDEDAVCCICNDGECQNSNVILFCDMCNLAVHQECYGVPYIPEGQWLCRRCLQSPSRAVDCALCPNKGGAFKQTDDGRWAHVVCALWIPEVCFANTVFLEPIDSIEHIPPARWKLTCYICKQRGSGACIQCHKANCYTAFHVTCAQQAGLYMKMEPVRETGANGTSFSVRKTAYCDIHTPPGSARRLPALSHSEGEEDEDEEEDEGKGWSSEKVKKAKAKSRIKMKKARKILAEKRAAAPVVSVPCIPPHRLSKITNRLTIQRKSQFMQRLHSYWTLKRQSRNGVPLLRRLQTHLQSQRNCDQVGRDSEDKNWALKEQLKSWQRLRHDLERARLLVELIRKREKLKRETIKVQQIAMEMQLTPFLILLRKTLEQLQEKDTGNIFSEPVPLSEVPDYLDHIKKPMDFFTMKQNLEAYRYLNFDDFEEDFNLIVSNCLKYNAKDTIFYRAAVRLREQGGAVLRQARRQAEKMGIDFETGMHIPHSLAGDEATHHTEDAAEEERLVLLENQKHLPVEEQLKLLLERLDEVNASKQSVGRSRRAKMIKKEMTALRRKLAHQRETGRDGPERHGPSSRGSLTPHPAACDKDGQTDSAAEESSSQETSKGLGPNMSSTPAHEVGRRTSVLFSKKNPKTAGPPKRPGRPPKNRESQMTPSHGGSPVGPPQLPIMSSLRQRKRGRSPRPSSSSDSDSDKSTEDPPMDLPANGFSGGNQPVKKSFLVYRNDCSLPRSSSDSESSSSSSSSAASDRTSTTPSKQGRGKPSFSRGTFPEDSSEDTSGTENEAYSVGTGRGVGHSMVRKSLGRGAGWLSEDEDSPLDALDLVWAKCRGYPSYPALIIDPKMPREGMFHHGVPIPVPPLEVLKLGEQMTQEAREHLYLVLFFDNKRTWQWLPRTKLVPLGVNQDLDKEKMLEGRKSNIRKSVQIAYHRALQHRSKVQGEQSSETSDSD

Chain of Fibroblast growth factor receptor 3 (Homo sapiens) (P22607 23-806 limits assumed): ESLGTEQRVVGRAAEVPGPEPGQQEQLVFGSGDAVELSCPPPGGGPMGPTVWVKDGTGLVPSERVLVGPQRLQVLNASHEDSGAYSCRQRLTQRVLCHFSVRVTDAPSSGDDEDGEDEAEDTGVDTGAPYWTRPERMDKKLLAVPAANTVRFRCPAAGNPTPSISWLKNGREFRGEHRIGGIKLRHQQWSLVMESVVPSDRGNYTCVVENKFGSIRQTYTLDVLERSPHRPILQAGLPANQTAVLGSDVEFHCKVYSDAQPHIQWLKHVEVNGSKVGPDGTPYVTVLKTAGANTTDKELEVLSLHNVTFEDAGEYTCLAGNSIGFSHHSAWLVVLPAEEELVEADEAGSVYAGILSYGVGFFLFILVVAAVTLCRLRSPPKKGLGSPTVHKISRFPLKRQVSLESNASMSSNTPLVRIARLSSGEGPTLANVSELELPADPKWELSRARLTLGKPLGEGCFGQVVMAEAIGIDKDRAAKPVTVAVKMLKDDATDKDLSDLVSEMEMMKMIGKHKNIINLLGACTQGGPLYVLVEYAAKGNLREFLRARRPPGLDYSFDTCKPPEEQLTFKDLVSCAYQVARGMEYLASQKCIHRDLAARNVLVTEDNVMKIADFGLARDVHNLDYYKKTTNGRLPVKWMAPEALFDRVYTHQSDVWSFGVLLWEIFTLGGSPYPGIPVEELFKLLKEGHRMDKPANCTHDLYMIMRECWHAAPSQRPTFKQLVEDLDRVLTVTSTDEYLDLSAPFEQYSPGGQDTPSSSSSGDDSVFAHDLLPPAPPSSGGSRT

| SMILES | ΔTm [1] | ΔTm (Peregrin (Homo sapiens)) |
| --- | --- | --- |
| C=CC[C@@H]1/C=C(\C)C[C@H](C)C[C@H](OC)[C@H]2O[C@@](O)(C(=O)C(=O)N3CCCC[C@H]3C(=O)O[C@H](/C(C)=C/[C@@H]3CC[C@@H](O)[C@H](OC)C3)[C@H](C)[C@@H](O)CC1=O)[C@H](C)C[C@@H]2OC | 0.4 °C | -3.28 °C |
| Cc1nc2ccc(Oc3ccc(F)cc3)cc2c(=O)n1C[C@H]1CCCN(C(C)C)C1 | 0.96 °C | -2.47 °C |
| CC(C)(C)c1cnc(CSc2cnc(NC(=O)C3CCN(CC(=O)NCCOCCOCCOCCNc4cccc5c4C(=O)N(C4CCC(=O)NC4=O)C5=O)CC3)s2)o1 (stereo not given) | 0.29 °C | -0.35 °C |
| Cc1nc(Nc2cnn(C3CCNCC3)c2)nc2c1N(C)C(=O)c1cc3ccccc3cc1N2C | 1.22 °C | -2.69 °C |
| CN[C@@H]1CC[C@@H](c2ccc(Cl)c(Cl)c2)c2ccccc21 | 0.61 °C | -1.62 °C |
| CCc1c(-c2ccc3[nH]ncc3c2)cnc(N)c1-c1ccc(O)cc1 | 2.78 °C | -1.61 °C |
| C=C(F)C(=O)N1CCN(c2nc(OC[C@@H]3CCCN3C)nc3c2CCN(c2cccc4cccc(Cl)c24)C3)C[C@@H]1CC#N | 0.12 °C | -3.96 °C |
| CNC(=O)c1c[nH]c2ccc(Nc3nccc(-c4ccccn4)n3)cc12 | 0.22 °C | -0.15 °C |
| Cc1n[nH]c2ncc(C(=O)N3CCC[C@H]3c3ccc(Cl)cc3)cc12 | 0.54 °C | -1.04 °C |
| CN(C)C/C=C/C(=O)Nc1ccc(C(=O)Nc2cccc(Nc3ncc(Cl)c(-c4c[nH]c5ccccc45)n3)c2)cc1 | 6.9 °C | 0.03 °C |
| CN(C1CCc2c(c3ccccc3n2CC(=O)O)C1)S(=O)(=O)c1ccc(F)cc1 (stereo not given) | 0.46 °C | -2.54 °C |
| COc1cc(Nc2cnc(C#N)c(O[C@H](C)CN(C)C)n2)ncc1-c1cnn(C)c1 | 1.26 °C | -0.27 °C |
| CCc1ccc(N(CC(C)C)S(=O)(=O)c2ccc(OCC3CCOCC3)c(CO)c2)cc1 | 0.5 °C | -0.2 °C |
| CCCCCCC(Sc1nc(Cl)cc(NCc2ccc(-c3ccccc3)cc2)n1)C(=O)O (stereo not given) | 0.79 °C | -6.38 °C |
| CCn1c(-c2nonc2N)nc2ccccc21 | 0.81 °C | -1.24 °C |
| CN(C)C(=O)Cn1cc(-c2nc(C3(c4ccc(-c5cnc(N)nc5)cc4)CC3)no2)cn1 | 0.55 °C | -2.76 °C |
| CCN(C)C(=O)c1ccc2c(c1)NC(=O)/C2=C(\NC1CCN(C)CC1)c1ccccc1 | 0.47 °C | -1.76 °C |
| COc1ccc(S(=O)(=O)N2CCOCC2)cc1Nc1ccc2c(n1)N(C1CCN(C)CC1)[C@H](C)C(=O)N2C | 0.38 °C | 1.52 °C |
| CNS(=O)(=O)c1ccc(N(C)C)c(Nc2ncnc3cc(OC)c(OC)cc23)c1 | 0.55 °C | -0.25 °C |
| CCCNc1ccc2ncc(-c3ccncc3)n2n1 | 3.37 °C | 0.26 °C |
| CCS(=O)(=O)c1cc2cc(C[C@@](O)(CC(C)(C)c3ccc(F)cc3C(N)=O)C(F)(F)F)[nH]c2cn1 | 0.69 °C and 0.88 °C | -2.1 °C and -0.15 °C |
| O=C(N[C@H]1CCC[C@H](CO)C1)C1CCN(c2nc3cc(Cl)c(-c4ccc(Cl)cc4)cc3o2)CC1 | -8.62 °C | -0.52 °C |
| CC(C)(O)c1cn(-c2ccc(-c3cccc(S(C)(=O)=O)c3)cc2)c(C(C)(C)c2ccccc2Cl)n1 | -2.28 °C | -1.46 °C |
| Cc1nn(C)c(COc2ccc(N3CCN(S(=O)(=O)N(C)C)CC3)cc2)c1-c1cccc2c(CCCOc3cccc4ccccc34)c(C(=O)O)n(CCN3CCOCC3)c12 | 0.47 °C | -2.4 °C |
| Clc1ccc(-c2nc3sccn3c2/C=N/OCc2ccc(Cl)c(Cl)c2)cc1 | 0.55 °C | -0.92 °C |

| SMILES | ΔTm [1] | ΔTm (Peregrin (Homo sapiens)) |
| --- | --- | --- |
| CN(C(=O)c1cnn2cccnc12)c1cc2c(cc1N1CCOCC1)C(=O)N(C[C@@H](F)C(C)(C)O)C2 | 1.38 °C | -1.49 °C |
| Cc1cc(Cl)ccc1S(=O)(=O)NC[C@H]1C2CCC(CC2)[C@@H]1/C=C\CCCC(=O)O | 0.12 °C | -2.88 °C |
| COc1cc(C(=O)NCCOCCOCCOCC(=O)N[C@H](C(=O)N2C[C@H](O)C[C@H]2C(=O)NCc2ccc(-c3scnc3C)cc2)C(C)(C)C)ccc1Nc1ncc(C(F)(F)F)c(Oc2cccc3c2C(=O)CC3)n1 | 1.52 °C | -0.82 °C |
| C=C[C@@]12CCc3cc(O)ccc3[C@H]1CC[C@@]1(C)[C@H]2CC[C@@H]1O | 0.31 °C | -6.72 °C |
| FC(F)c1cncc(-c2ccc3ncc4nnc(C5=CCCOCC5)n4c3c2)c1 | 0.51 °C | -2.16 °C |
| COCCNC1CCC(Nc2cc(-c3csc(NCC4(C#N)CCOCC4)n3)c(Cl)cn2)CC1 (stereo not given) | 0.74 °C | 0.03 °C |
| COc1cc(N(C)c2ccnc3ccc(C(F)(F)F)cc23)cc(OC)c1OC | 0.76 °C | -1.93 °C |
| N#CC[C@H](C1CCCC1)n1cc(-c2ncnc3[nH]ccc23)cn1 | 3.43 °C | 0.48 °C |
| COc1cc(C(N)=O)ccc1Nc1ncc2c(n1)N(CCC(C)C)[C@H](C)C(=O)N2C | 1.76 °C | 1.82 °C |
| Cc1nnc2n1-c1sc3c(c1C(c1ccccc1Cl)=NC2)C[C@@H](C(=O)N1CCOCC1)C3 | 0.58 °C | -1.96 °C |
| CNc1ncc2cc(-c3ccc(-c4cccc(C)n4)cc3Cl)c(=O)n(C[C@H]3OC[C@H](N)CO3)c2n1 | 1.85 °C | -2.41 °C |
| O=C(Nc1cccc(C(F)(F)F)c1)c1cccc(-n2cc(-c3ccco3)nn2)c1 | -0.75 °C | -8.11 °C |
| CC(C)N1CCN(Cc2cnc(-c3cc(-c4cccc5[nH]ccc45)cc4[nH]ncc34)o2)CC1 | 1.84 °C | 0.22 °C |
| CN(C)CCCNc1ccnc(Nc2cccc(Cl)c2)n1 | 1.43 °C | -1.77 °C |
| CC(C)[C@H](CO)Nc1nc(Nc2ccc(C(=O)O)c(Cl)c2)c2ncn(C(C)C)c2n1 | 4.45 °C | 0.06 °C |
| CN(C)CCC[C@@]1(c2ccc(F)cc2)OCc2cc(C#N)ccc21 | 0.45 °C | -3.08 °C |
| CC1CN(CC(=O)N2CC(C)(C)c3nc(CO)c(Cc4ccc(F)cc4)cc32)C(CN2CCOCC2C)CN1 (stereo not given) | 0.81 °C | -1.08 °C |
| Cc1ccc2c(NS(=O)(=O)c3ccccc3Cl)cccc2c1Oc1ncccc1-c1ccnc(N[C@H]2CCCNC2)n1 | 0.02 °C | -3.81 °C |
| O=C(Nc1ccc(OC(F)(F)Cl)cc1)c1cnc(N2CC[C@@H](O)C2)c(-c2cc[nH]n2)c1 | 0.66 °C | -3.77 °C |
| CNc1oc(-c2cccc3ccccc23)nc1C#N | 0.61 °C | -2.17 °C |
| C[C@@H](CN1CC[C@@]2(C)c3cccc(O)c3C[C@@H]1C2(C)C)OCc1ccccc1 | 1.19 °C | -1.96 °C |
| COc1cc(-c2cc3ncccc3c(OC[C@H]3CNC(=O)C3)n2)cc(OC)c1OC1CCOCC1 | 1.16 °C | -1.09 °C |
| C[C@H](CCC(=O)O)[C@H]1CC[C@H]2[C@@H]3[C@H](O)C[C@@H]4C[C@H](O)CC[C@]4(C)[C@H]3C[C@H](O)[C@]12C | 0.75 °C | -2.19 °C |
| Cc1nc2ccc(Cl)cc2c(-c2ccccc2)c1CC(=O)O | 0.68 °C | -3.32 °C |
| CC(=O)N1CCC(c2ccc(C(=O)NC3=NCCN3)cc2C(F)(F)F)CC1 | 0.6 °C | -1.55 °C |
